Test results as given in ChEMBL document CHEMBL4477208, “Discovery and Rational Design of Pteridin-7(8H)-one-Based Inhibitors Targeting FMS-like Tyrosine Kinase 3 (FLT3) and Its Mutants” (J Med Chem, 2016).

Assays:
[1] = test system: MV4-11; experiment: Cell cycle arrest in human MV4-11 cells assessed as accumulation at S phase at 10 nM after 48 hrs by PI/RNase staining based FACS analysis (reference value: 16.50%); assay type: functional
[2] = target: Receptor-type tyrosine-protein kinase FLT3 (Homo sapiens, UniProt P36888, ITD); experiment: Binding affinity to human partial length FLT3 ITD mutant expressed in bacterial expression system after 1 hr
Receptor-type tyrosine-protein kinase FLT3 (Homo sapiens, UniProt P36888, ITD), sequence (P36888 whole entry, looked up, stated change not applied): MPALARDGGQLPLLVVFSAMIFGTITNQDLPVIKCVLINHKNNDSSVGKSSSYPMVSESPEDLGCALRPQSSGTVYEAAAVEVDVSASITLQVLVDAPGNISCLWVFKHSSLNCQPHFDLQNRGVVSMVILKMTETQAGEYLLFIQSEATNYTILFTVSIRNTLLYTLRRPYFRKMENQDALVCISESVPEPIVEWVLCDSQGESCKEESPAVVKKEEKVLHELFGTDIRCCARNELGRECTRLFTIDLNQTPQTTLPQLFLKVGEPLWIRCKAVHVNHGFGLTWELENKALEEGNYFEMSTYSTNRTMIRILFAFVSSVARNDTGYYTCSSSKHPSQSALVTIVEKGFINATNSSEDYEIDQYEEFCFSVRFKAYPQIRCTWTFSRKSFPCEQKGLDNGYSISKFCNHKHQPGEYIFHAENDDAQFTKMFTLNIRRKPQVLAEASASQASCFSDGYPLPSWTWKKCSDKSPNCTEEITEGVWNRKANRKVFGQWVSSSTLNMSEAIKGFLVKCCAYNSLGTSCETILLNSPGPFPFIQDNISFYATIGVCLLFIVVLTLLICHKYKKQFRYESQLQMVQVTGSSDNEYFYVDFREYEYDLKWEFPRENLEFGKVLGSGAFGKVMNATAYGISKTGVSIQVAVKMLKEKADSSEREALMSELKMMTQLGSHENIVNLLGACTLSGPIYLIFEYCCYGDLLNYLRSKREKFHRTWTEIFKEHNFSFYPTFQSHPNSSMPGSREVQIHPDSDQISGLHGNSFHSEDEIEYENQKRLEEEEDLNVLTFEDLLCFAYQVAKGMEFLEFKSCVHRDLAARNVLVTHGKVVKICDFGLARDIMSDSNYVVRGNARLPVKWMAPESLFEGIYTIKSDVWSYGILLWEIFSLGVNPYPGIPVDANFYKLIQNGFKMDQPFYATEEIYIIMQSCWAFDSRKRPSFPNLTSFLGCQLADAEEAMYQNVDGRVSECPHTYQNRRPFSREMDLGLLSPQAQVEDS

[3] = test system: NCI-H187; experiment: Antiproliferative activity against human NCI-H187 cells after 72 hrs by MTT assay; assay type: functional, cell-based; conditions: NCI-H187, 72 h
[4] = test system: MV4-11; experiment: Induction of apoptosis in human MV4-11 cells assessed as viable cells at 1 nM after 48 hrs by annexin V/propidium iodide staining based FACS analysis (reference value: 90.60%); assay type: functional; conditions: MV4-11, 48 h, read-out: Activity
[5] = test system: MV4-11; experiment: Induction of apoptosis in human MV4-11 cells assessed as necrotic cells at 1000 nM after 48 hrs by annexin V/propidium iodide staining based FACS analysis (reference value: 0.05%); assay type: functional
[6] = target: Receptor-type tyrosine-protein kinase FLT3 (Homo sapiens, UniProt P36888, F691L/ITD); experiment: Binding affinity to human partial length FLT3 ITD/F691L mutant expressed in mammalian expression system after 1 hr
Receptor-type tyrosine-protein kinase FLT3 (Homo sapiens, UniProt P36888, F691L/ITD), sequence (P36888 whole entry, looked up, stated change not applied): as above

[7] = test system: RS4-11; experiment: Antiproliferative activity against human RS4:11 cells after 72 hrs by MTT assay; assay type: functional, cell-based; conditions: RS4-11, 72 h
[8] = test system: MV4-11; experiment: Cell cycle arrest in human MV4-11 cells assessed as accumulation at G2 phase at 100 nM after 48 hrs by PI/RNase staining based FACS analysis (reference value: 13.95%); assay type: functional
[9] = test system: NCI-H1299; experiment: Antiproliferative activity against human H1299 cells after 72 hrs by SRB assay; assay type: functional, cell-based; conditions: NCI-H1299, 72 h
[10] = Cmax in overnight fasted Sprague-Dawley rat plasma at 10 mg/kg administered via oral gavage up to 24 hrs by LC-MS/MS analysis; assay type: ADME, organism-based; design: dose 10 mg/kg, route oral
[11] = test system: MV4-11; experiment: Induction of apoptosis in human MV4-11 cells assessed as necrotic cells at 10000 nM after 48 hrs by annexin V/propidium iodide staining based FACS analysis (reference value: 0.05%); assay type: functional
[12] = test system: MV4-11; experiment: Induction of apoptosis in human MV4-11 cells assessed as viable cells at 10000 nM after 48 hrs by annexin V/propidium iodide staining based FACS analysis (reference value: 90.60%); assay type: functional; conditions: MV4-11, 48 h, read-out: Activity

SMILES: Cc1cc(Nc2ncc3ncc(=O)n(-c4ccc(N)cc4)c3n2)ccc1N1CCN(C)CC1
- Activity [1]: 18.4%
- Kd [2]: 6.9 nM
- IC50 [3]: > 10000 nM
- viability at 0.001 µM [4]: 90.3%
- Activity [5]: 0.05%
- Kd [6]: 5.7 nM
- IC50 [7]: 925 nM
- Activity [8]: 0%
- IC50 [9]: 4880 nM
- Cmax [10]: 41 ng/mL
- Activity [11]: 0.02%
- viability at 10 µM [12]: 0.02%
